How the values were obtained:
[1] = Plasma pharmacokinetics in rats after tracheal nebulization, intravenous injection and oral gavage (Example 1); type: in vivo, SD rats; conditions: for AUC(0-t) / Cmax: male, Sprague-Dawley; for AUC(0-t) / Cmax / F: rat plasma
Description: Example 1: Plasma pharmacokinetics study in rats after administration of EGCG via tracheal nebulization, intravenous injection, and oral gavage.
Materials: EGCG, content > 98wt%.
Preparation of tracheal nebulization solution: Accurately weigh the EGCG compound and dissolve it in Solvent 1 to prepare a clear and transparent drug solution. Solvent 1 is composed of purified water, citric acid, and sodium citrate.
Preparation of intravenous injection and oral gavage solutions: Accurately weigh the EGCG compound and dissolve it in saline.
Animals: Clean-grade male SD rats, provided by Qinglongshan Animal Breeding Farm in Jiangning District, Nanjing City, with a body weight range of 160-200g.
Tracheal Nebulization (inh): Rats in each tracheal nebulization group were anesthetized with isoflurane and fixed in a restraint device. An anesthetic laryngoscope was used to press the animal's tongue root and expose the glottis. A micro liquid nebulizer needle (blunt tip) filled with a specific amount of EGCG solution, was gently inserted into the trachea. The drug was nebulized into the lungs, the needle was quickly withdrawn, and the rat was removed from the holder, with its head rotated left and right to ensure even distribution of the drug across the lung lobes. The nebulized inhalation doses were 1.6 mg/kg, 3.2 mg/kg, and 6.4 mg/kg, with 5 rats in each dose group.
Oral Gavage (po): The dosage for each rat was determined based on body weight. An appropriate size syringe and gavage tube were used to administer the drug orally. The dose was 60 mg/kg, with 5 rats.
Intravenous Injection (iv): EGCG was administered via tail vein injection. The dose was 3.2 mg/kg, with 5 rats in total.
Blood samples were collected from the experimental groups via the orbital venous plexus before administration (0 min) and at 5 min, 15 min, 30 min, 1 h, 2 h, 4 h, and 6 h after administration (8 sampling points in total), with approximately 50-100 µL of whole blood collected at each point.
After collection at the specified time points, blood samples were placed in heparinized tubes, centrifuged, and plasma was separated into centrifuge tubes, then stored at -70°C for subsequent analysis.
Mass spectrometry conditions: Determined using UPLC-MS/MS. Chromatographic conditions: Determined using. Pharmacokinetic parameters were calculated using the WinNonlin pharmacokinetic software with statistical moment methods for each animal.

[2] = cited from earlier work
[3] = inhaled, tracheal nebulization (inh) 1.6 mg/kg
[4] = inhaled, tracheal nebulization (inh) 3.2 mg/kg
[5] = inhaled, tracheal nebulization (inh) 6.4 mg/kg
[6] = intravenous injection (iv) 3.2 mg/kg

O=C(O[C@@H]1Cc2c(O)cc(O)cc2O[C@@H]1c1cc(O)c(O)c(O)c1)c1cc(O)c(O)c(O)c1 [EGCG, (-)-Epigallocatechin gallate]
AUC(0-t) [1, 3]: 0.409 ± 0.0756 µg·h/mL | Cmax [1, 3]: 0.298 ± 0.0919 µg/mL | AUC(0-t) [1, 4]: 1.12 ± 0.221 µg·h/mL | Cmax [1, 4]: 1.12 ± 0.127 µg/mL | AUC(0-t) [1, 5]: 1.86 ± 0.595 µg·h/mL | Cmax [1, 5]: 2.02 ± 0.658 µg/mL | AUC(0-t) [1, 6]: 1.68 ± 0.614 µg·h/mL | Cmax [1, 6]: 1.92 ± 0.789 µg/mL | AUC(0-t) ([1]; oral gavage (po) 60 mg/kg): 0.372 ± 0.167 µg·h/mL | Cmax ([1]; oral gavage (po) 60 mg/kg): 0.118 ± 0.073 µg/mL | dose ratio between oral gavage and inhalation when achieving the same plasma exposure level ([1]; po 60 mg/kg: inh 1.6 mg/kg, rat): 37.5 times | F ([1]; oral gavage (po) 60 mg/kg): 1.2±0.0% | F ([1]; tracheal nebulization (inh) 1.6 mg/kg): 48.7±9.0% | F ([1]; tracheal nebulization (inh) 3.2 mg/kg): 66.9±13.1% | F ([1]; tracheal nebulization (inh) 6.4 mg/kg): 55.3±17.7% | serum transaminases ([2]; daily oral intake at doses equal to or higher than 800 mg): significantly increased serum transaminases | body weight of patients ([2]; oral): significantly reduce the body weight
